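Method: 48-hour compound exposure of cells in 96-well plates, five concentrations, linear interpolation of endpoints. Abbreviation: GI50, concentration required for 50% inhibition of growth. TGI: total growth inhibition.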
Key:
Test in all cases: inhibition of tumour cell growth, NCI panel, 48 h
[1] = tested on: LOX IMVI melanoma
[2] = tested on: HS 578T breast
[3] = tested on: T-47D breast
[4] = tested on: SK-OV-3 ovarian
[5] = tested on: HL-60(TB) leukemia
[6] = tested on: MDA-MB-435
[7] = tested on: ACHN renal
[8] = tested on: IGROV1 ovarian
[9] = tested on: SF-539 CNS
[10] = tested on: NCI/ADR-RES ovarian
[11] = tested on: KM12 colon
[12] = tested on: MDA-MB-231 breast
[13] = tested on: A498 renal
[14] = tested on: HOP-62 NSCLC
[15] = tested on: NCI-H226 lung
[16] = tested on: CCRF-CEM leukemia
[17] = tested on: 786-0 renal
[18] = tested on: MALME-3M melanoma
[19] = tested on: RPMI-8226 leukemia
[20] = tested on: DU-145 prostate
[21] = tested on: CAKI-1 renal
[22] = tested on: A549 NSCLC
[23] = tested on: SF-268 CNS
[24] = tested on: NCI-H460 lung
[25] = tested on: NCI-H522 lung
[26] = tested on: HCT-116 colon
[27] = tested on: OVCAR-5 ovarian
[28] = tested on: SK-MEL-5 melanoma
[29] = tested on: M14 melanoma

Compound CO[C@@H]1CCN(c2nccc(Nc3cc4c(C(C)C)ccc(N5CC(CS(C)(=O)=O)[C@H]5C)c4cn3)n2)C[C@@H]1F (some centres not stated) has a TGI [1] of 16.8 µM, a GI50 [2] of 4.26 µM and a TGI [2] of 41.5 µM. It also gave a GI50 [3] of 2.47 µM, a TGI [3] of 13.4 µM and a GI50 [4] of 7.42 µM. The TGI [4] was > 100 µM, the GI50 [5] was 3.06 µM and the TGI [5] was > 100 µM. It also gave a GI50 [6] of 4.96 µM, a TGI [6] of 83.9 µM and a GI50 [7] of 1.33 µM. For the same compound, the TGI [7] was 44.6 µM, the GI50 [8] was 1.03 µM and the TGI [8] was 7.13 µM. The GI50 [9] was 5.05 µM, the TGI [9] was 24.3 µM and the GI50 [10] was 2.81 µM. The TGI [10] was 9.74 µM, the GI50 [11] was 3.14 µM and the TGI [11] was > 100 µM. The GI50 [12] was 8.77 µM, the TGI [12] was > 100 µM and the GI50 [13] was 10.1 µM. For the same compound, the TGI [13] was 44.7 µM, the GI50 [14] was 4.46 µM and the TGI [14] was > 100 µM. For the same compound, the GI50 [15] was 6.17 µM, the TGI [15] was 62.9 µM and the GI50 [16] was 4.55 µM. For the same compound, the TGI [16] was > 100 µM, the GI50 [17] was 7.18 µM and the TGI [17] was > 100 µM. The GI50 [18] was 3.76 µM, the TGI [18] was 15.6 µM and the GI50 [19] was 2.14 µM. It also gave a TGI [19] of 7.33 µM, a GI50 [20] of 2.45 µM and a TGI [20] of 45.1 µM. The GI50 [21] was 2.32 µM, the TGI [21] was > 100 µM and the GI50 [22] was 3.06 µM. For the same compound, the TGI [22] was > 100 µM, the GI50 [23] was 3.98 µM and the TGI [23] was > 100 µM. The GI50 [24] was 3.51 µM, the TGI [24] was 20.5 µM and the GI50 [25] was 1.69 µM. For the same compound, the TGI [25] was 8.25 µM, the GI50 [26] was 3.26 µM and the TGI [26] was > 100 µM. For the same compound, the GI50 [27] was 6.36 µM, the TGI [27] was > 100 µM and the GI50 [28] was 2.22 µM. The TGI [28] was 5.42 µM, the GI50 [29] was 5.93 µM and the TGI [29] was > 100 µM.
